Assay results from ChEMBL document CHEMBL1125229 (J Med Chem, 1991).

Target: Angiotensin-converting enzyme (Homo sapiens, UniProt P12821)
Experiment: Compound was tested for its inhibitory potency against angiotensin I converting enzyme.

Sequence of Angiotensin-converting enzyme (P12821 whole entry): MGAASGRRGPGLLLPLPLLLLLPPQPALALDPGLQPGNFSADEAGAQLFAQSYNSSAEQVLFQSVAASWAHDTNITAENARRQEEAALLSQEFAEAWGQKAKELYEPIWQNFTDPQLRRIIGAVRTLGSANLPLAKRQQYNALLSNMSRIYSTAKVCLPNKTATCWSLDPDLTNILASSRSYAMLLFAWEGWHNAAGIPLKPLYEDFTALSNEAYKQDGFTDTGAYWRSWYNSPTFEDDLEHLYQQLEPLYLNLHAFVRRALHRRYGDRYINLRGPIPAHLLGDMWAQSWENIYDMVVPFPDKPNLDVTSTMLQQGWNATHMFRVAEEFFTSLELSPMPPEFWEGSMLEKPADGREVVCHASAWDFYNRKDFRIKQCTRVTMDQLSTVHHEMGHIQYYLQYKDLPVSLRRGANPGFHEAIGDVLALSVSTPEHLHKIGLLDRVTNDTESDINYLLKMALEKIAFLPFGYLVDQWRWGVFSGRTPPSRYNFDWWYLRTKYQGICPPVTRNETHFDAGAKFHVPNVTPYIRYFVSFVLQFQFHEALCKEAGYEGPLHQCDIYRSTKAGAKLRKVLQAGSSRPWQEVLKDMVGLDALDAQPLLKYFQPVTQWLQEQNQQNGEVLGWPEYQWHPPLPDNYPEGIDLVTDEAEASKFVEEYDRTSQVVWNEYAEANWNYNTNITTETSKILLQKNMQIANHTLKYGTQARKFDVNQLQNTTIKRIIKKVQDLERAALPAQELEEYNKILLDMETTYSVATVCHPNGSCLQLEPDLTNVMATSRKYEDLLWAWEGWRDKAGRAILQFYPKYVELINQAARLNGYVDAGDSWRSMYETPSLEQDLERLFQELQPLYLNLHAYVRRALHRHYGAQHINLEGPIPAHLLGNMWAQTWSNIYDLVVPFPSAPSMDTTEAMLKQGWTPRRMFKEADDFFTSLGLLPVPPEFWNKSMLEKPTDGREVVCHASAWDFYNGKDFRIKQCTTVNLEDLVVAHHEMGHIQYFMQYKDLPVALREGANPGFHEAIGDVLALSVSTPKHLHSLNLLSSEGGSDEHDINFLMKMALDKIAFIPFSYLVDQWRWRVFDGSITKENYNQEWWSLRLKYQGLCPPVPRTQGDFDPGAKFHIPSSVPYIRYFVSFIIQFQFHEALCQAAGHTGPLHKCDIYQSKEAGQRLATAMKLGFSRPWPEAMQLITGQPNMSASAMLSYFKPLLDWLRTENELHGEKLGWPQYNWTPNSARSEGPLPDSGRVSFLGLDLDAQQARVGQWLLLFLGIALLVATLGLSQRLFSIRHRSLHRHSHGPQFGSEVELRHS

Ki: 1.2 nM
Compound: O=C(O)C(CCc1ccccc1)NC1Cc2ccccc2[C@H]2CCC[C@@H](C(=O)O)N2C1=O (stereo partly specified)
